Experimental data taken from article PMC11012124, “Synthesis of Novel Triazine-Based Chalcones and 8,9-dihydro-7H-pyrimido[4,5-b][1,4]diazepines as Potential Leads in the Search of Anticancer, Antibacterial and Antifungal Agents” (International Journal of Molecular Sciences, 2024).

What was measured:
BT-549 = test: cells; conditions: Homo sapiens, BT-549, 48 h
MOLT-4 = test: cells; conditions: Homo sapiens, MOLT-4, 48 h
RPMI-8226 = test: cells; conditions: Homo sapiens, RPMI-8226, 48 h
KM12 = test: cells; conditions: Homo sapiens, KM12, 48 h
SF-539 = test: cells; conditions: Homo sapiens, SF-539, 48 h
DU-145 = test: cells; conditions: Homo sapiens, DU-145, 48 h
A549/ATCC = test: cells; conditions: Homo sapiens, A549, 48 h
UACC-62 = test: cells; conditions: Homo sapiens, UACC-62, 48 h
HCT-15 = test: cells; conditions: Homo sapiens, HCT-15, 48 h
HCC-2998 = test: cells; conditions: Homo sapiens, HCC 2998, 48 h
HS 578T = test: cells; conditions: Homo sapiens, 48 h
MDA-MB-468 = test: cells; conditions: Homo sapiens, MDA-MB-468, 48 h
SK-MEL-28 = test: cells; conditions: Homo sapiens, SK-MEL-28, 48 h
OVCAR-8 = test: cells; conditions: Homo sapiens, OVCAR-8, 48 h
SK-OV-3 = test: cells; conditions: Homo sapiens, SK-OV-3, 48 h
SNB-75 = test: cells; conditions: Homo sapiens, SNB-75, 48 h
SW-620 = test: cells; conditions: Homo sapiens, SW-620, 48 h
HCT-116 = test: cells; conditions: Homo sapiens, HCT-116, 48 h
NCI-H322M = test: cells; conditions: Homo sapiens, 48 h
U251 = test: cells; conditions: Homo sapiens, U-251, 48 h
CAKI-1 = test: cells; conditions: Homo sapiens, CAKI-1, 48 h
HT29 = test: cells; conditions: Homo sapiens, HT-29, 48 h
NCI-H522 = test: cells; conditions: Homo sapiens, NCI-H522, 48 h
60 cancer cell lines = test: NCI-60 one-dose screen (10 μM); format: cell-based; conditions: Homo sapiens; one dose of 10 μM, mean over 60 cancer cell lines; read-out: Mean Growth Percent (MGP)
Excerpt: Additionally, the mean of the growth percentages (MGP) of each compound against all the 60 cancer cell lines is also reported, which is used as one of the selection criteria to continue with tests at five concentration doses.

MALME-3M = test: cells; conditions: Homo sapiens, 48 h
HOP-62 = test: cells; conditions: Homo sapiens, HOP-62, 48 h
COLO 205 = test: cells; conditions: Homo sapiens, COLO 205, 48 h
ACHN = test: cells; conditions: Homo sapiens, 48 h
[1] = Hemolytic activity, spectrophotometric; format: cell-based, human; conditions: human, human red blood cells (huRBC), 5% hematocrit, 200 μg/mL, 37 °C
EKVX = test: cells; conditions: Homo sapiens, 48 h
MDA-MB-231/ATCC = test: cells; conditions: Homo sapiens, MDA-MB-231, 48 h
SNB-19 = test: cells; conditions: Homo sapiens, SNB-19, 48 h
PC-3 = test: cells; conditions: Homo sapiens, PC-3, 48 h
T-47D = test: cells; conditions: Homo sapiens, T47D, 48 h
M14 = test: cells; conditions: Homo sapiens, M14, 48 h
UO-31 = test: cells; conditions: Homo sapiens, UO-31, 48 h

COc1cc(/C=C/C(=O)c2cc(OC)c(OC)c(OC)c2)ccc1Oc1nc(Nc2ccc(F)cc2)nc(N(C)C)n1 [21d]
GI50 (BT-549): 1560 nM | CC50 (BT-549; read-out: LC50): 6.56 µM | GI50 (MOLT-4): 472 nM | CC50 (MOLT-4; read-out: LC50): > 100 µM | GI50 (RPMI-8226): 751 nM | CC50 (RPMI-8226; read-out: LC50): > 100 µM | GI50 (KM12): 3.63 µM | CC50 (KM12; read-out: LC50): > 100 µM | GI50 (SF-539): 1640 nM | CC50 (SF-539; read-out: LC50, SF-539, 48 h): 5.81 µM | GI50 (DU-145): 3.99 µM | CC50 (DU-145; read-out: LC50): 67.9 µM | GI50 (A549/ATCC): 4.49 µM | CC50 (A549/ATCC; read-out: LC50): 54.7 µM | GI50 (UACC-62): 1410 nM | CC50 (UACC-62; read-out: LC50): 6.38 µM | GI50 (HCT-15): 1180 nM | CC50 (HCT-15; read-out: LC50): 6.39 µM | GI50 (HCC-2998): 2030 nM | CC50 (HCC-2998; read-out: LC50): 8.52 µM | GI50 (HS 578T): 2390 nM | CC50 (HS 578T; read-out: LC50): > 100 µM | GI50 (MDA-MB-468): 1350 nM | CC50 (MDA-MB-468; read-out: LC50): 9.11 µM | GI50 (SK-MEL-28): 1800 nM | CC50 (SK-MEL-28; read-out: LC50): 9.23 µM | GI50 (OVCAR-8): 1550 nM | CC50 (OVCAR-8; read-out: LC50): > 100 µM | GI50 (SK-OV-3): 8.42 µM | CC50 (SK-OV-3; read-out: LC50): 97.4 µM | GI50 (SNB-75): 2540 nM | CC50 (SNB-75; read-out: LC50): 81.8 µM | GI50 (SW-620): 1550 nM | CC50 (SW-620; read-out: LC50): 6.89 µM | GI50 (HCT-116): 1400 nM | CC50 (HCT-116; read-out: LC50): 7.24 µM | GI50 (NCI-H322M): 2990 nM | CC50 (NCI-H322M; read-out: LC50): > 100 µM | GI50 (U251; U251, 48 h): 503 nM | CC50 (U251; read-out: LC50): 9.59 µM | GI50 (CAKI-1): 1980 nM | CC50 (CAKI-1; read-out: LC50): 25.1 µM | GI50 (HT29): 1540 nM | CC50 (HT29; read-out: LC50): 8.22 µM | GI50 (NCI-H522): 1470 nM | CC50 (NCI-H522; read-out: LC50): 7.11 µM | activity at 10 µM (60 cancer cell lines): -33.4% | GI50 (MALME-3M): 1750 nM | CC50 (MALME-3M; read-out: LC50): 11.1 µM | GI50 (HOP-62): 1830 nM | CC50 (HOP-62; read-out: LC50): 8.22 µM | GI50 (COLO 205): 4.45 µM | CC50 (COLO 205; read-out: LC50): 47.5 µM | GI50 (ACHN): 2300 nM | CC50 (ACHN; read-out: LC50): 50.6 µM | hemolysis at 24 h, 200 µg/mL [1]: 8% | GI50 (EKVX): 2150 nM | CC50 (EKVX; read-out: LC50): 31.1 µM | GI50 (MDA-MB-231/ATCC): 1480 nM | CC50 (MDA-MB-231/ATCC; read-out: LC50): 8.63 µM | GI50 (SNB-19): 1860 nM | CC50 (SNB-19; read-out: LC50): 18.5 µM | GI50 (PC-3): 2770 nM | CC50 (PC-3; read-out: LC50): > 100 µM | GI50 (T-47D): 1870 nM | CC50 (T-47D; read-out: LC50): > 100 µM | GI50 (M14): 2830 nM | CC50 (M14; read-out: LC50): 32.8 µM | GI50 (UO-31): 1120 nM | CC50 (UO-31; read-out: LC50): 4.96 µM
